Measured values reported in patent publication US20040037806A1, “Aldosterone blocker therapy to prevent or treat inflammation-related disorders” (Pharmacia Corporation, priority 2002, published 2004).

Legend:
Assay type in all cases: in vivo, rat
[1] = system: cyclooxygenase-2 (COX-2); experiment: Assay A: cyclooxygenase-2 immunostaining of hearts; conditions: angiotensin II-infused, saline-drinking Wistar rats, eplerenone 100 mpk, aldosterone replacement in adrenalectomized rats
[2] = system: osteopontin; experiment: Assay A: osteopontin immunostaining of hearts; conditions: angiotensin II-infused, saline-drinking Wistar rats; eplerenone 100 mpk; aldosterone replacement in adrenalectomized rats
[3] = Assay A: angiotensin II infusion model, heart histology (hematoxylin&eosin), vascular inflammation and myocardial injury; conditions: Wistar rats, 1% NaCl, angiotensin II 25 ng/min sc, 4 weeks, 10/group; eplerenone 100 mpk; aldosterone replacement in adrenalectomized rats
From the text: Assay A: In Vivo Angiotensin II Infusion Model
Male Wistar rats (n=50, 10/group; BW=200 g)
Sacrifice by exanguination after 4 weeks. Blood was be collected in dry tubes for determination of serum electrolytes and in EDTA-containing tubes for measurement of aldosterone and corticosterone levels
Hearts were stained with hematoxylin&eosin and have been analyzed for determination of morphologic abnormalities (i.e. necrosis, vascular injury).

[4] = Assay A: angiotensin II infusion model, systolic blood pressure by tail-cuff; conditions: Wistar rats, 1% NaCl to drink, angiotensin II 25 ng/min sc, 4 weeks; eplerenone 100 mpk; aldosterone given to adrenalectomized, dexamethasone-treated rats
[5] = Assay A: angiotensin II infusion model, urinary Na+/K+ ratio (natriuresis index); conditions: Wistar rats, 1% NaCl, angiotensin II 25 ng/min sc; eplerenone 100 mpk
From the text: Electrolyte excretion. The ratio between daily urinary Na^+ excretion and urinary K^+ excretion (U Na^+/K^+ ratio) was used as an index for natriuresis. Urinary Na^+/K^+ ratio was similar in all groups before the start of the treatments, and increased similarly in all animals upon initiation of the high salt diet.

## angiotensin II (DRVYIHPF; Angiotensin-2; UniProt P01019 25-32, looked up) [vasoconstrictive octapeptide infused sc via alzet minipump to induce hypertension]
[1]
  Cyclooxygenase-2 expression in the heart (immunostaining): presence of this enzyme in areas of inflammation around the arteries
[1]; listed as Ang II
  Cyclooxygenase-2 expression in the heart (immunostaining): induction of COX-2 expression
[2]
  Osteopontin expression in the heart (immunostaining): presence of osteopontin in the media of coronary arteries
[3]
  Vascular inflammatory lesions in the coronary arteries / heart: Seven out of the ten
[4]
  Systolic blood pressure: increased
[5]
  Urinary Na+/K+ ratio (index for natriuresis): significantly increased
